The record followed here is PubChem BioAssay (NCI).

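Following 48 hours of exposure in 96-well plates, responses at five concentrations were used to interpolate endpoints linearly. GI50 is the concentration that inhibits growth by half. TGI denotes the concentration required for complete inhibition of growth.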

The subject of the first experiment is NCI-H23 lung. Nature of the experiment: NCI tumour cell line growth inhibition, 48 h.
`NC(=O)[C@H]1CCN(c2ncnc(N)c2F)C[C@@H]1N1CCC[C@@H](Nc2cc(Cl)cc(C(F)(F)F)c2)C1=O`: the GI50 is 20.8 µM and the TGI was determined as 65.8 µM.
Regarding `CCN(CC)c1ccc(/C=C/c2cc(C)c3ccccc3n2)cc1`, the GI50 is 3.43 µM and the TGI came out at 39.3 µM.
On the same counts, the results for `Cc1ccc2[nH]c(C(=O)NN3C(=O)CSC34CCCCC4C)c(-c3ccccc3)c2c1` (centres undefined) are 17 µM and 33.2 µM.
On the same counts, the results for `O=C(CCl)c1ccc([N+](=O)[O-])o1` are 4.94 µM and 26 µM.
On the same counts, the results for `CN(C)CCCNC(=O)c1cc(NC(=O)CCNS(=O)(=O)c2ccc3c(c2)C(=O)c2ccccc2C3=O)cn1C` are above 100 µM and above 100 µM.
In the case of `C=C1C(=O)O[C@H]2C[C@@H](C)[C@@H]3CC(=O)OC[C@@]3(C)CC12` (some centres undefined), the TGI turned out to be 62.5 µM.
Consider `Nc1ncnc2sc(=S)c3c(c12)CCC3`, for which the GI50 was 21.1 µM and the TGI turned out to be 56.8 µM.
`CC(=O)OC1c2ccccc2CC2(OC(C)=O)c3ccccc3C12` (centres undefined) came in with a TGI above 100 µM.
In the case of `COc1cc2cc(Oc3ccc(NC(=O)Nc4ccc(Cl)c(C(F)(F)F)c4)cc3)c(C)nc2cc1OCCN1CCCCC1`, the GI50 is 1.69 µM and the TGI came to 3.28 µM.
On the same counts, the results for `CC12CCC(=O)C(O1)C1C(=O)c3cc4ccccc4cc3C(=O)C12` (centres undefined) are 15.8 µM and 31.6 µM.
`Cc1ccc2c(c1)C1(C)OC(CC(N)C1O)O2` (centres undefined) came in with a TGI above 100 µM.
On to `CN(C)c1ccc2nc3ccc(=[N+](C)C)cc-3oc2c1`, for which the GI50 is 0.788 µM and the TGI amounted to 5.6 µM.
In the case of `Cc1ccc(C(=O)Nc2ccc(S(=O)(=O)O)c3cc(S(=O)(=O)O)cc(S(=O)(=O)O)c23)cc1NC(=O)c1cccc(N)c1`, the TGI was above 100 µM.
`N#CC(C#N)=Cc1ccc(-c2ccc(-c3nc4ccccc4s3)cc2)o1`: the GI50 is 15.6 µM and the TGI was found to be 43.3 µM.
On the same counts, the results for `COc1ccc(Cn2nc(-c3cc(OC)c(OC)c(OC)c3)c3c2CCc2cnoc2-3)cc1OC` are 3.43 µM and 64 µM.
On the same counts, the results for `O=C1C(Cl)=C(N/N=c2/[nH][nH]/c(=N/NC3=C(Cl)C(=O)c4ccccc4C3=O)c3ccccc23)C(=O)c2ccccc21` are 17.3 µM and 36.9 µM.

Another experiment concerns UACC-257 melanoma. Kind of experiment: NCI tumour cell line growth inhibition, 48 h.
`O=c1cc(CNc2cc(F)cc(F)c2)c2ccc(I)cc2[nH]1`: the GI50 was above 100 µM and the TGI was above 100 µM.
For the compound `CCCN(Cc1ccc(F)cc1)c1ccc(CO)c(Cl)c1`, the GI50 is 0.207 µM and the TGI came out at 0.776 µM.
Turning to `CCN1C(=O)N(CC)C2C1NN=c1s/c(=C3\C(=O)N(C(C)C)c4ccccc43)c(=O)n12` (centres undefined), the GI50 was above 37.7 µM and the TGI is above 100 µM.
On the same counts, the results for `NC(=O)[C@H]1CCN(c2ncnc(N)c2F)C[C@@H]1N1CCC[C@@H](Nc2cc(Cl)cc(C(F)(F)F)c2)C1=O` are 20.3 µM and 59.7 µM.
On the same counts, the results for `CCN(CC)c1ccc(/C=C/c2cc(C)c3ccccc3n2)cc1` are 5.18 µM and 42.8 µM.
On the same counts, the results for `Cc1ccc2[nH]c(C(=O)NN3C(=O)CSC34CCCCC4C)c(-c3ccccc3)c2c1` (centres undefined) are 16.8 µM and 31.8 µM.
`O=C(CCl)c1ccc([N+](=O)[O-])o1`: the GI50 is 1.83 µM and the TGI stood at 3.93 µM.
On the same counts, the results for `CN(C)CCCNC(=O)c1cc(NC(=O)CCNS(=O)(=O)c2ccc3c(c2)C(=O)c2ccccc2C3=O)cn1C` are 54.4 µM and above 100 µM.
Regarding `CCOC(=O)c1c2c(n(CC(C)C)c1C)-c1nc[nH]c1C(=O)C2=O`, the GI50 was 18.4 µM and the TGI is 32.3 µM.
On the same counts, the results for `Nc1ncnc2sc(=S)c3c(c12)CCC3` are above 100 µM and above 100 µM.
For the compound `CC(=O)OC1c2ccccc2CC2(OC(C)=O)c3ccccc3C12` (centres undefined), the TGI is above 100 µM.
For the compound `Nc1nc(/C=C\c2ccc([N+](=O)[O-])o2)nc(N2CCN(c3ccccc3)CC2)n1`, the GI50 was 11.5 µM and the TGI worked out at 41.3 µM.
On the same counts, the results for `COc1cc2cc(Oc3ccc(NC(=O)Nc4ccc(Cl)c(C(F)(F)F)c4)cc3)c(C)nc2cc1OCCN1CCCCC1` are 1.79 µM and 3.46 µM.
On the same counts, the results for `CC12CCC(=O)C(O1)C1C(=O)c3cc4ccccc4cc3C(=O)C12` (centres undefined) are 16.2 µM and 32.5 µM.
Turning to `Cc1ccc2c(c1)C1(C)OC(CC(N)C1O)O2` (centres undefined), the TGI is above 100 µM.
As to `CN(C)c1ccc2nc3ccc(=[N+](C)C)cc-3oc2c1`, the GI50 is 0.697 µM and the TGI amounted to 3.34 µM.
On to `Cc1ccc(C(=O)Nc2ccc(S(=O)(=O)O)c3cc(S(=O)(=O)O)cc(S(=O)(=O)O)c23)cc1NC(=O)c1cccc(N)c1`, for which the TGI is above 100 µM.
For `N#CC(C#N)=Cc1ccc(-c2ccc(-c3nc4ccccc4s3)cc2)o1`, the GI50 was 92.9 µM and the TGI was above 100 µM.
On the same counts, the results for `COc1ccc(Cn2nc(-c3cc(OC)c(OC)c(OC)c3)c3c2CCc2cnoc2-3)cc1OC` are 34.6 µM and above 100 µM.
On the same counts, the results for `O=C1C(Cl)=C(N/N=c2/[nH][nH]/c(=N/NC3=C(Cl)C(=O)c4ccccc4C3=O)c3ccccc23)C(=O)c2ccccc21` are 14.9 µM and 28.7 µM.

The next experiment deals with U251 CNS. Kind of experiment: NCI tumour cell line growth inhibition, 48 h.
In the case of `O=c1cc(CNc2cc(F)cc(F)c2)c2ccc(I)cc2[nH]1`, the GI50 was 0.574 µM and the TGI is above 100 µM.
Take `CCCN(Cc1ccc(F)cc1)c1ccc(CO)c(Cl)c1`: the GI50 was 2.48 µM and the TGI is 16.2 µM.
On the same counts, the results for `CCN1C(=O)N(CC)C2C1NN=c1s/c(=C3\C(=O)N(C(C)C)c4ccccc43)c(=O)n12` (centres undefined) are 0.378 µM and above 57.7 µM.
For the compound `NC(=O)[C@H]1CCN(c2ncnc(N)c2F)C[C@@H]1N1CCC[C@@H](Nc2cc(Cl)cc(C(F)(F)F)c2)C1=O`, the GI50 is 26.3 µM and the TGI was above 100 µM.
On the same counts, the results for `CCN(CC)c1ccc(/C=C/c2cc(C)c3ccccc3n2)cc1` are 2.36 µM and 21.1 µM.
On the same counts, the results for `Cc1ccc2[nH]c(C(=O)NN3C(=O)CSC34CCCCC4C)c(-c3ccccc3)c2c1` (centres undefined) are 16.8 µM and 32.7 µM.
On the same counts, the results for `O=C(CCl)c1ccc([N+](=O)[O-])o1` are 1.95 µM and 4.37 µM.
`C=C1C(=O)O[C@H]2C[C@@H](C)[C@@H]3CC(=O)OC[C@@]3(C)CC12` (some centres undefined): the TGI is above 100 µM.
Regarding `CCOC(=O)c1c2c(n(CC(C)C)c1C)-c1nc[nH]c1C(=O)C2=O`, the GI50 was 14.2 µM and the TGI is 27.2 µM.
On to `Nc1ncnc2sc(=S)c3c(c12)CCC3`, for which the GI50 is 45.8 µM and the TGI is above 100 µM.
`CC(=O)OC1c2ccccc2CC2(OC(C)=O)c3ccccc3C12` (centres undefined) gave a TGI above 100 µM.
Consider `Nc1nc(/C=C\c2ccc([N+](=O)[O-])o2)nc(N2CCN(c3ccccc3)CC2)n1`, for which the GI50 was 6.06 µM and the TGI worked out at 39.7 µM.
On the same counts, the results for `CC12CCC(=O)C(O1)C1C(=O)c3cc4ccccc4cc3C(=O)C12` (centres undefined) are 19 µM and 43.7 µM.
`Cc1ccc2c(c1)C1(C)OC(CC(N)C1O)O2` (centres undefined) came in with a TGI above 100 µM.
As for `CN(C)c1ccc2nc3ccc(=[N+](C)C)cc-3oc2c1`, the GI50 is 0.725 µM and the TGI was 4.8 µM.
In the case of `Cc1ccc(C(=O)Nc2ccc(S(=O)(=O)O)c3cc(S(=O)(=O)O)cc(S(=O)(=O)O)c23)cc1NC(=O)c1cccc(N)c1`, the TGI was above 100 µM.
As to `N#CC(C#N)=Cc1ccc(-c2ccc(-c3nc4ccccc4s3)cc2)o1`, the GI50 is 12 µM and the TGI stood at 24.8 µM.
On the same counts, the results for `COc1ccc(Cn2nc(-c3cc(OC)c(OC)c(OC)c3)c3c2CCc2cnoc2-3)cc1OC` are 4.97 µM and above 100 µM.
On the same counts, the results for `O=C1C(Cl)=C(N/N=c2/[nH][nH]/c(=N/NC3=C(Cl)C(=O)c4ccccc4C3=O)c3ccccc23)C(=O)c2ccccc21` are 15.4 µM and 29.2 µM.

Another experiment concerns SK-MEL-5 melanoma. Nature of the experiment: NCI tumour cell line growth inhibition, 48 h.
Consider `O=c1cc(CNc2cc(F)cc(F)c2)c2ccc(I)cc2[nH]1`, for which the GI50 was 0.641 µM and the TGI was above 100 µM.
On the same counts, the results for `CCCN(Cc1ccc(F)cc1)c1ccc(CO)c(Cl)c1` are 6.51 µM and 19.8 µM.
On the same counts, the results for `CCN1C(=O)N(CC)C2C1NN=c1s/c(=C3\C(=O)N(C(C)C)c4ccccc43)c(=O)n12` (centres undefined) are 0.394 µM and 2.33 µM.
On the same counts, the results for `NC(=O)[C@H]1CCN(c2ncnc(N)c2F)C[C@@H]1N1CCC[C@@H](Nc2cc(Cl)cc(C(F)(F)F)c2)C1=O` are 16.3 µM and 30 µM.
In the case of `CCN(CC)c1ccc(/C=C/c2cc(C)c3ccccc3n2)cc1`, the GI50 is 3.1 µM and the TGI came to 11.8 µM.
In the case of `Cc1ccc2[nH]c(C(=O)NN3C(=O)CSC34CCCCC4C)c(-c3ccccc3)c2c1` (centres undefined), the GI50 was 15.1 µM and the TGI stood at 31.3 µM.
On the same counts, the results for `O=C(CCl)c1ccc([N+](=O)[O-])o1` are 4.11 µM and 15.7 µM.
On the same counts, the results for `CN(C)CCCNC(=O)c1cc(NC(=O)CCNS(=O)(=O)c2ccc3c(c2)C(=O)c2ccccc2C3=O)cn1C` are above 100 µM and above 100 µM.
With `C=C1C(=O)O[C@H]2C[C@@H](C)[C@@H]3CC(=O)OC[C@@]3(C)CC12` (some centres undefined), the TGI was above 100 µM.
Consider `CCOC(=O)c1c2c(n(CC(C)C)c1C)-c1nc[nH]c1C(=O)C2=O`, for which the GI50 is 16.2 µM and the TGI is 30.2 µM.
On the same counts, the results for `Nc1ncnc2sc(=S)c3c(c12)CCC3` are 4.81 µM and 29.8 µM.
On the same counts, the results for `Nc1nc(/C=C\c2ccc([N+](=O)[O-])o2)nc(N2CCN(c3ccccc3)CC2)n1` are 6.14 µM and 25.1 µM.
On the same counts, the results for `COc1cc2cc(Oc3ccc(NC(=O)Nc4ccc(Cl)c(C(F)(F)F)c4)cc3)c(C)nc2cc1OCCN1CCCCC1` are 1.65 µM and 3.04 µM.
Compound `Cc1ccc2c(c1)C1(C)OC(CC(N)C1O)O2` (centres undefined) had a TGI above 100 µM.
On to `CN(C)c1ccc2nc3ccc(=[N+](C)C)cc-3oc2c1`, for which the GI50 is 0.47 µM and the TGI was found to be 1.65 µM.
In turn, `Cc1ccc(C(=O)Nc2ccc(S(=O)(=O)O)c3cc(S(=O)(=O)O)cc(S(=O)(=O)O)c23)cc1NC(=O)c1cccc(N)c1` showed a TGI above 100 µM.
As for `N#CC(C#N)=Cc1ccc(-c2ccc(-c3nc4ccccc4s3)cc2)o1`, the GI50 is 6.01 µM and the TGI came out at 76.2 µM.
On the same counts, the results for `COc1ccc(Cn2nc(-c3cc(OC)c(OC)c(OC)c3)c3c2CCc2cnoc2-3)cc1OC` are 2.78 µM and 12 µM.
On the same counts, the results for `O=C1C(Cl)=C(N/N=c2/[nH][nH]/c(=N/NC3=C(Cl)C(=O)c4ccccc4C3=O)c3ccccc23)C(=O)c2ccccc21` are 14.1 µM and 29.3 µM.
